Laboratory results published in patent US20120088731A1, “METHOD FOR TREATING PARKINSON'S DISEASE THROUGH REGULATING VDAC1 PROTEIN” (SNU R&DB FOUNDATION, priority 2010, published 2012).

How the values were obtained:
Type in all cases: cell-based
[1] = tested on: cultured rat hippocampal neurons transfected with parkin shRNA; assay: Mitochondrial fragmentation in neurons transfected with parkin shRNA (immunocytochemistry); details: AA 48 hours, CsA 24 hours, Ru360 24 hours; for dendritic mitochondrial fragmentation induced by parkin knockdown (FIG. 4): VDAC1 shRNA 72 hours transfection, parkin shRNA at 13 DIV; for relative numbers of the neurons containing fragmented mitochondria (FIG. 5): parkin-knockdowned hippocampal neurons, VDAC1 shRNA 72 hours
Source text: EGFP was used as a fluorescence marker to confirm the transfection of neuron with shRNA vector, and DsRed2-mito [pDsRed2-mito (Clontech)] was used as a fluorescence marker to observe mitochondria in neurons.

[2] = tested on: cultured rat hippocampal neurons transfected with PINK1 shRNA; assay: Mitochondrial fragmentation in neurons transfected with PINK1 shRNA (immunocytochemistry); details: AA 48 hours, CsA 24 hours, Ru360 24 hours; for dendritic mitochondrial fragmentation induced by knockdown of PINK1 (FIG. 7): VDAC1 shRNA 72 hours transfection, PINK1 shRNA at 13 DIV; for relative number of the neurons containing fragmented mitochondria (FIG. 8): PINK1-knockdowned hippocampal neurons, VDAC1 shRNA 72 hours
[3] = tested on: parkin null mouse mDA neurons; assay: Mitochondrial defects of parkin null mouse mDA neurons (immunocytochemistry); details: for level of the elongated mitochondria (FIG. 9): parkin null mDA neurons treated for 24 hours, 7 DIV; for relative numbers of the neurons containing fragmented mitochondria (FIG. 10): parkin null mouse mDA neurons, compared to heterozygous littermates
Procedure: (§1) Primary mouse DA neuron cultures were prepared from embryonic day (E) 13.5 mouse midbrain of parkin heterogeneous(+/−) and null(−/−) embryos [Neurobasal Media (Invitrogen)].

[4] = tested on: parkin null mouse mDA neurons; assay: Synaptic activity (mEPSCs) of parkin null mouse mDA neurons; details: condition same as Experiment 6
Procedure: as §1
It was examined whether PINK1-Parkin-VDAC1 pathway regulates the synaptic activity of the mDA neurons. To this end, the frequency and amplitude of miniature excitatory postsynaptic currents (mEPSCs) of parkin heterozygous and null mouse mDA neurons were measured.

| Compound | dendritic mitochondrial fragmentation induced by parkin knockdown (FIG. 4) [1] | relative numbers of the neurons containing fragmented mitochondria (FIG. 5) [1] | dendritic mitochondrial fragmentation induced by knockdown of PINK1 (FIG. 7) [2] | relative number of the neurons containing fragmented mitochondria (FIG. 8) [2] | level of the elongated mitochondria (FIG. 9) [3] | relative numbers of the neurons containing fragmented mitochondria (FIG. 10) [3] | frequency of mEPSCs (FIG. 12a) [4] |
| --- | --- | --- | --- | --- | --- | --- | --- |
| Ru360 | suppressed the dendritic mitochondrial fragmentation induced by parkin knockdown | prevents dendritic mitochondrial fragmentation in parkin-knockdowned hippocampal neurons and/or restores the fragmented mitochondria to normal elongated morphology | suppressed the dendritic mitochondrial fragmentation induced by knockdown of PINK1 | prevents dendritic mitochondrial fragmentation in PINK1-knockdowned hippocampal neurons and/or restores the fragmented mitochondria to normal elongated morphology | showed a significantly restored level of the elongated mitochondria | significantly prevented mitochondrial fragmentation in parkin null mouse mDA neurons | restored the frequency of mEPSCs up to the level of heterozygotic neurons |
| C[C@H]1[C@H](C)CC[C@]2(C(=O)O)CC[C@]3(C)C(=CC[C@@H]4[C@@]5(C)C[C@@H](O)[C@H](O)[C@@](C)(CO)[C@@H]5CC[C@]43C)[C@H]12 [AA, asiatic acid] | suppressed the dendritic mitochondrial fragmentation induced by parkin knockdown | prevents dendritic mitochondrial fragmentation in parkin-knockdowned hippocampal neurons and/or restores the fragmented mitochondria to normal elongated morphology | suppressed the dendritic mitochondrial fragmentation induced by knockdown of PINK1 | prevents dendritic mitochondrial fragmentation in PINK1-knockdowned hippocampal neurons and/or restores the fragmented mitochondria to normal elongated morphology | showed a significantly restored level of the elongated mitochondria | significantly prevented mitochondrial fragmentation in parkin null mouse mDA neurons | restored the frequency of mEPSCs up to the level of heterozygotic neurons |
| cyclosporine A [CsA] | suppressed the dendritic mitochondrial fragmentation induced by parkin knockdown |  | suppressed the dendritic mitochondrial fragmentation induced by knockdown of PINK1 |  |  |  |  |
